For the experiment, the system named is HT29 and Colo205 (human colon carcinoma) and H460 and Calu-6 (nonsmall cell carcinoma) xenograft tumors. Description: Xenograft animal tumor models. It is filed as in vivo. The note with it: gemcitabine 160 mg/kg i.p., Balb/c (nu/nu) mice. The text has this: To test the ability of the Chk1 inhibitors of the invention to enhance the killing of tumors by DNA damaging agents in mice, xenograft tumor models using colon tumor cell lines are established. 5-fluorouracil (5-FU) or gemcitabine can be used as DNA damaging agents. HT29 and Colo205 (human colon carcinoma) and H460 and Calu-6 (nonsmall cell carcinoma) cells can be used to propagate xenograft tumors in 6-8 week old female […] Balb/c (nu/nu) mice. Mice are maintained in a laminar airflow cabinet under pathogen-free conditions and fed sterile food and water ad libitum. Cell lines are grown to subconfluence in RPMI 1640 media supplemented with 10% FBS, 100 U/mL penicillin, 100 μg/mL streptomycin, and 1.5 mM L-glutamine in a 5% CO2 humidified environment. Single cell suspensions are prepared in CMF-PBS, and cell concentration adjusted to 1×10^8 cells/mL. Mice are inoculated subcutaneously (s.c.) on the right flank or right leg with a total of 1×10^7 cells (100 μL). Mice are randomized (5-15 mice/group) into four treatment groups and used when tumors reach a volume of […] (usually 7-11 days post-inoculation). Tumors are measured with […] calipers and tumor volumes are estimated using the empirically derived formula: tumor volume (cm^3)=tumor length (cm) x tumor width (cm)×tumor depth (cm)/3.3. […] Tumor size is monitored every other day for the duration of the experiment.

Each structure is given as a SMILES string.

Consider `Nc1ccn([C@@H]2O[C@H](CO)[C@@H](O)C2(F)F)c(=O)n1` [gemcitabine, 2′,2′ difluoro-2′-deoxycytidine], for which the tumor growth entry is reported as “delay in tumor growth”.
